Measurements: US7193127B1, “Codeinone reductase from alkaloid poppy” (priority 1999, dated 2007)
Entries after “also recorded” stand apart in the source; their conditions may differ. Like-named read-outs stand apart in the source and are kept apart here.

Legend:
[1] = test system: codeinone reductase isoforms; assay type: biochemical, Papaver somniferum; conditions: for serves as substrate in the reductive reaction: NADPH as cofactor, physiologically forward reaction
Description: The two other potential substrates for reduction, the 1,2-dehydroreticulinium ion and salutaridine (FIG. 1), or for the physiologically reverse reaction, salutaridinol and (R)-reticuline, were tested as substrates; with the codeinone reductase isoforms.
In order to test for a functional evolutionary relationship between isoflavonoid and alkaloid anabolism, codeinone reductase was analyzed for the ability to substitute for the reductase in the formation of 6-deoxychalcone in co-action with either native chalcone synthase or native stilbene synthase from Pinus sylvestris.

[2] = biological target: COR1.2 (Papaver somniferum, UniProt Q9SQ69); assay: Km determination with purified recombinant codeinone reductase isoform COR1.2
COR1.2, sequence (Q9SQ69 whole entry, canonical isoform): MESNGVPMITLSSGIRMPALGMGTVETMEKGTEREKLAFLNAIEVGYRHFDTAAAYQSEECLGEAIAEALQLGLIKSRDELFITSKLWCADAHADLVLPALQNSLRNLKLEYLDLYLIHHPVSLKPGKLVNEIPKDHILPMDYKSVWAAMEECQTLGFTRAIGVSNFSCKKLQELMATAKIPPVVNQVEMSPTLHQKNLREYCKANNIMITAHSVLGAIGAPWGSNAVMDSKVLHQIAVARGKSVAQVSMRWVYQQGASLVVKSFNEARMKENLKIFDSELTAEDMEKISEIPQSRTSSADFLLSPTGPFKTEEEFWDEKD
Description: (§1) The four codeinone reductase isoform-calmodulin-binding peptide fusion proteins were purified from E. coli lysates in one step with a calmodulin affinity column.
(§2) For all isoforms, the temperature optimum for reduction (physiologically forward reaction) was 28° C., for oxidation (physiologically reverse reaction) was 30° C., the pH optimum for reduction was 6.8 and for oxidation was 9.0.
(§3) For enzyme assays, single colonies were picked and grown in 3 ml Luria-Bertani medium containing 100 μg/ml ampicillin at 37° C. to an OD590 of 0.8. For protein purification, single colonies were picked and grown in 1 l Luria-Bertani medium containing 100 μg/ml ampicillin at 37° C. to an OD590 of 1.8. […] The bacterial pellet from a 3 ml culture was resuspended in 0.5 ml buffer and that from a one liter culture in 100 ml buffer. The cells were ruptured by sonication.

[3] = biological target: COR1.3 (Papaver somniferum, UniProt Q9SQ68); assay: Km determination with purified recombinant codeinone reductase isoform COR1.3
COR1.3, sequence (Q9SQ68 whole entry, canonical isoform): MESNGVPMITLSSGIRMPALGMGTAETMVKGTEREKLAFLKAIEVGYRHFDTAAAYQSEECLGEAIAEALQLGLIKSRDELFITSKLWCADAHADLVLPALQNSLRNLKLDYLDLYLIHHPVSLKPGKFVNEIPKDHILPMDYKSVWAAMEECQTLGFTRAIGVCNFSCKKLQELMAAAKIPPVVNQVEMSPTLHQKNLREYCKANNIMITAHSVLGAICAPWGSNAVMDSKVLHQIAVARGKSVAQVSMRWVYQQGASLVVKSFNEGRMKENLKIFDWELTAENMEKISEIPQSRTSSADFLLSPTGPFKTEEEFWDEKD
Description: as §1, §2, §3

[4] = biological target: T1, reductase of the 6′-deoxychalcone synthase complex (Glycine max, UniProt P26690); assay: Codeinone/codeine conversion by the reductase of the 6'-deoxychalcone synthase complex; assay type: biochemical, soybean; conditions: in the presence of NADPH
T1 sequence (P26690 1-315): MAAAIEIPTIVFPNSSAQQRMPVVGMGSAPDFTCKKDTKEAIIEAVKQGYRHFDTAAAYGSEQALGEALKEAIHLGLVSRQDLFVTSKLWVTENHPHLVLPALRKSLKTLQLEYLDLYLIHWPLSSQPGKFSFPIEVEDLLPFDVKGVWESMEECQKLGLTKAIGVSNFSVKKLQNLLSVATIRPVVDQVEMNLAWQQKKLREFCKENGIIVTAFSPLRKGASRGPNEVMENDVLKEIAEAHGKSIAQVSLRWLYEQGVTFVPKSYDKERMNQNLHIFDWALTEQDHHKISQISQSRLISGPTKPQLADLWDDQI

[5] = test system: COc1ccc2c3c1O[C@H]1C(=O)C=C[C@H]4[C@@H](C2)N(C)CC[C@]314; assay: cells, lysate or membranes named
Description: as §1, §2, §3

[6] = analogs and aldo/keto reductase family substrates, direction not given
[7] = NADP as cofactor, physiologically reverse reaction

COc1ccc(C[C@@H]2NCCc3cc(OC)c(O)cc32)cc1O (mixture of isomers) [(S)-norreticuline, (S) and (R)-norreticuline]
transformed by codeinone reductase (tested as substrate) [1, 6]: inactive

COc1ccc(CC2=[N+](C)CCc3cc(OC)c(O)cc32)cc1O [1,2-dehydroreticulinium ion]
serves as substrate in the reductive reaction [1]: None of these alkaloids served as substrate

O=C1C=CCCC1 [2-cyclohexene-1-one]
transformed by codeinone reductase (tested as substrate) [1, 6]: not transformed

C[C@]12CC[C@H]3[C@@H](CC=C4C[C@@H](O)CC[C@@]43C)[C@@H]1CC[C@@H]2O [5-androstene-3β,17β-diol]
transformed by codeinone reductase (tested as substrate) [1]: not transformed

C[C@]12CCC(=O)C[C@@H]1CC[C@@H]1[C@@H]2CC[C@]2(C)[C@@H](O)CC[C@@H]12 [5α-androstan-17β-ol-3-one]
transformed by codeinone reductase (tested as substrate) [1]: not transformed

CC(C)CCC[C@@H](C)[C@H]1CC[C@H]2[C@@H]3CC[C@H]4C[C@@H](O)CC[C@]4(C)[C@H]3CC[C@]12C [5α-cholestane-3β-ol]
transformed by codeinone reductase (tested as substrate) [1, 6]: not transformed

COc1ccc(C[C@H]2NCCc3cc(OC)c(O)cc32)cc1O [(R)-norreticuline]
transformed by codeinone reductase (tested as substrate) [1, 6]: inactive

COc1ccc(C[C@@H]2c3cc(O)c(OC)cc3CCN2C)cc1O [(R)-reticuline]
serves as substrate in the oxidative reaction [1, 7]: None of these alkaloids served as substrate

COc1ccc(C[C@H]2c3cc(O)c(OC)cc3CCN2C)cc1O [(S)-reticuline]
transformed by codeinone reductase (tested as substrate) [1, 6]: inactive

O=P(O)(O)OC[C@@H](O)[C@@H](O)[C@H](O)[C@@H](O)CO [D-Sorbitol-6-phosphate]
transformed by codeinone reductase (tested as substrate) [1, 6]: not transformed

O=C[C@H](O)[C@@H](O)[C@H](O)CO [D-xylose]
transformed by codeinone reductase (tested as substrate) [1, 6]: not transformed

NC(=O)C1=CN([C@@H]2O[C@H](COP(=O)(O)OP(=O)(O)OC[C@H]3O[C@@H](n4cnc5c(N)ncnc54)[C@H](O)[C@@H]3O)[C@@H](O)[C@H]2O)C=CC1 [NADH]
ability to substitute for NADPH as cofactor ([1]; any of the isoforms): could not substitute for NADPH

NC(=O)C1=CN([C@@H]2O[C@H](COP(=O)(O)OP(=O)(O)OC[C@H]3O[C@@H](n4cnc5c(N)ncnc54)[C@H](OP(=O)(O)O)[C@@H]3O)[C@@H](O)[C@H]2O)C=CC1 [NADPH]
Km [2]: 220 µM

NC(=O)c1ccc[n+]([C@@H]2O[C@H](COP(=O)([O-])OP(=O)(O)OC[C@H]3O[C@@H](n4cnc5c(N)ncnc54)[C@H](OP(=O)(O)O)[C@@H]3O)[C@@H](O)[C@H]2O)c1 [NADP]
Km [2]: 58 µM | Km [3]: 45 µM

COc1ccc2c3c1O[C@H]1C(=O)C=C[C@H]4[C@@H](C2)N(C)CC[C@]314 [codeinone]
reduction by the reductase of the 6′-deoxychalcone synthase complex [4]: could neither reduce

O=C1CCCCC1 [cyclohexanone]
transformed by codeinone reductase (tested as substrate) [1, 6]: not transformed

COc1ccc2c3c1O[C@H]1[C@@H](O)CC[C@H]4[C@@H](C2)N(C)CC[C@@]341 [dihydrocodeine]
serves as substrate in the oxidative reaction [1, 7]: functions

COc1ccc2c3c1O[C@H]1C(=O)CC[C@H]4[C@@H](C2)N(C)CC[C@]314 [hydrocodone]
serves as substrate in the reductive reaction [1]: functions

CN1CC[C@]23c4c5ccc(O)c4O[C@H]2[C@@H](O)C=C[C@H]3[C@H]1C5 [morphine]
serves as substrate in the oxidative reaction [1]: functions

CN1CC[C@]23c4c5ccc(O)c4O[C@H]2C(=O)C=C[C@H]3[C@H]1C5 [morphinone]
serves as substrate in the reductive reaction [1]: functions; also recorded: able to reduce

COc1ccc2c3c1O[C@H]1[C@@H](O)C=C[C@H]4[C@@H](C2)NCC[C@@]341 [norcodeine]
transformed by codeinone reductase (tested as substrate) [1]: inactive

CCCCC[C@H](O)/C=C/[C@H]1C(=O)C[C@H](O)[C@@H]1CCCCCCC(=O)O [prostaglandin D1]
transformed by codeinone reductase (tested as substrate) [1, 6]: not transformed

COC1=C[C@]23CCN(C)[C@H](Cc4ccc(OC)c(O)c42)C3=CC1=O [salutaridine]
serves as substrate in the reductive reaction [1]: None of these alkaloids served as substrate

COC1=C[C@]23CCN(C)[C@H](Cc4ccc(OC)c(O)c42)C3=C[C@@H]1O [salutaridinol]
serves as substrate in the oxidative reaction [1, 7]: None of these alkaloids served as substrate

COR1.2 (Papaver somniferum)
Km [5]: 62 µM

COR1.3 (Papaver somniferum)
Km [5]: 48 µM
